According to US11407719B2, “Anti-inflammatory agents” (Resverlogix Corp., priority 2009, dated 2022):

Tested on: hIL-6 mRNA
Test: Quantification of hIL-6 mRNA
Type: cell-based, human
Parameters: key: Active: an active compound is one that causes a ≥20% inhibition in IL-6 mRNA at a concentration less than or equal to 10 μM
Conditions: IL-6 mRNA by real-time PCR; differentiated U937 cells, 1 h pretreatment, lipopolysaccharide stimulation 3 h; concentration ≤10 μM
Protocol: In this example, […] in tissue culture cells was quantitated to measure the transcriptional inhibition of hIL-6 when treated with a compound of the invention.
A human leukemic monocyte lymphoma cell line (U937) was plated (3.2×10^5 cells per well) in a 96-well plate in 100 μL RPMI-1640, and differentiated for 3 days prior to the addition of the compound of interest. The cells were pretreated for 1 h with the test compound prior to stimulation with lipolysaccharide from Escherichia coli. The cells were incubated at 37° C. for 3 h before the cells were harvested. At time of harvest, the spent media was removed from the cells and the cells were rinsed in 200 μL PBS. Cell lysis solution (70 μL) was added the cells in each well and incubated for 5-10 min at room temperature, to allow for complete cell lysis and detachment. mRNA was then prepared using the “mRNA Catcher PLUS plate” (Invitrogen), according to the protocol supplied. After the last wash, as much wash buffer as possible was aspirated without allowing the wells to dry. Elution buffer (E3, 70 μL) was then added to each well. mRNA was then eluted by incubating the mRNA Catcher PLUS plate with Elution Buffer for 5 min at 68° C. and then immediately placing the plate on ice.
The eluted mRNA isolated was then used in a one-step quantitative real-time PCR reaction, using components of the Ultra Sense Kit together with Applied Biosystems primer-probe mixes. Real-time PCR data was analyzed, normalizing the Ct values for hIL-6 to an internal control, prior to determining the fold induction of each unknown sample, relative to the control.

| Compound | Inhibition of IL-6 expression |
| --- | --- |
| COc1cc(OC)c2c(=O)[nH]c(-c3cc(C)c(OCCN4CCOCC4)c(C)c3)cc2c1 [3-(3,5-dimethyl-4-(2-morpholinoethoxy)phenyl)-6,8-dimethoxyisoquinolin-1(2H)-one] | Active |
| COc1cc(OC)c2c(=O)[nH]c(-c3ccc(N4CCC(=O)CC4)cc3)nc2n1 [5,7-Dimethoxy-2-(4-(4-oxopiperidin-1-yl)phenyl)pyrido[2,3-d]pyrimidin-4(3H)-one] | Active |
| COc1cc(OC)c2c(=O)[nH]c(-c3ccc(N4CCN(Cc5ccc(F)cc5)CC4)cc3)nc2c1 [2-(4-(4-(4-Fluorobenzyl)piperazin-1-yl)phenyl)-5,7-dimethoxyquinazolin-4(3H)-one] | Active |
| COc1cc(OC)c2c(=O)[nH]c(-c3ccc(C4CCNCC4)cc3)nc2c1 [5,7-Dimethoxy-2-(4-(piperidin-4-yl)phenyl)quinazolin-4(3H)-one] | Active |
| COc1cc(OC)c2c(=O)[nH]c(-c3ccc(Nc4ccncc4)cc3)nc2c1 [5,7-Dimethoxy-2-(4-(pyridin-4-ylamino)phenyl)quinazolin-4(3H)-one] | Active |
| COc1cc(OC)c2c(=O)[nH]c(-c3ccc(CN4CCOCC4)cc3)nc2c1 [5,7-dimethoxy-2-(4-(morpholinomethyl)phenyl)quinazolin-4(3H)-one] | Active |
| COc1cc(OC)c2c(=O)[nH]c(-c3cc(C)c(OCCN4CCN(C)CC4)c(C)c3)cc2c1 [3-(3,5-dimethyl-4-(2-(4-methylpiperazin-1-yl)ethoxy)phenyl)-6,8-dimethoxyisoquinolin-1(2H)-one] | Active |
| COc1cc(OC)c2c(=O)[nH]c(-c3ccc(Nc4ccc(C)cc4)cc3)nc2c1 [5,7-Dimethoxy-2-(4-(p-tolylamino)phenyl)quinazolin-4(3H)-one] | Active |
| COc1cc(OC)c2c(=O)[nH]c(-c3ccc4[nH]nc(CO)c4c3)nc2c1 [2-(3-(Hydroxymethyl)-1H-indazol-5-yl)-5,7-dimethoxyquinazolin-4(3H)-one] | Active |
| Cc1cc(-c2nc3nc(OC(C)C)cc(OC(C)C)c3c(=O)[nH]2)cc(C)c1OCCN1CCCC1 [2-(3,5-Dimethyl-4-(2-(pyrrolidin-1-yl)ethoxy)phenyl)-5,7-diisopropoxypyrido[2,3-d]pyrimidin-4(3H)-one] | Active |
| COc1cc(OC)c2c(=O)[nH]c(-c3ccc(N4C[C@@H](C)N(C(C)C)[C@@H](C)C4)cc3)nc2c1 [2-(4-((3R,5S)-4-Isopropyl-3,5-dimethylpiperazin-1-yl)phenyl)-5,7-dimethoxyquinazolin-4(3H)-one] | Active |
| COc1cc(OC)c2c(=O)[nH]c(-c3ccc(N(CCO)CCO)cc3)nc2n1 [2-(4-(bis(2-hydroxyethyl)amino)phenyl)-5,7-dimethoxypyrido[2,3-d]pyrimidin-4(3H)-one] | Active |
| COc1cc(OC)c2c(=O)[nH]c(-c3ccc4[nH]c(CCO)cc4c3)nc2c1 [2-(2-(2-Hydroxyethyl)-1H-indol-5-yl)-5,7-dimethoxyquinazolin-4(3H)-one] | Active |
| COc1cc(OC)c2c(=O)[nH]c(-c3ccc4[nH]c(CO)cc4c3)nc2c1 [2-(2-(Hydroxymethyl)-1H-indol-5-yl)-5,7-dimethoxyquinazolin-4(3H)-one] | Active |
| COc1cc(OC)c2c(=O)[nH]c(-c3ccc(N4CCC(N(Cc5ccccc5)C(C)=O)CC4)nc3)nc2c1 [N-Benzyl-N-(1-(5-(5,7-dimethoxy-4-oxo-3,4-dihydroquinazolin-2-yl)pyridin-2-yl)piperidin-4-yl)acetamide] | Active |
| COc1cc(OC)c2c(=O)[nH]c(-c3cc(C)c(OCCCN4CCCC4)c(C)c3)nc2c1 [2-(3,5-Dimethyl-4-(3-(pyrrolidin-1-yl)propoxy)phenyl)-5,7-dimethoxyquinazolin-4(3H)-one] | Active |
| COc1cc(OC)c2c(=O)[nH]c(-c3ccc(OC4CCN(C(C)=O)CC4)cc3)nc2c1 [2-(4-(1-Acetylpiperidin-4-yloxy)phenyl)-5,7-dimethoxyquinazolin-4(3H)-one] | Active |
| COc1cc(OC)c2c(=O)[nH]c(-c3ccc(N4CCCN(C(C)=O)CC4)cc3)nc2c1 [2-(4-(4-Acetyl-1,4-diazepan-1-yl)phenyl)-5,7-dimethoxyquinazolin-4(3H)-one] | Active |

| Compound | Inhibition of IL-6 expression |
| --- | --- |
| COc1cc(OC)c2c(=O)[nH]c(-c3ccc(N4CCN(C(=O)c5ccncc5)CC4)cc3)nc2c1 [2-(4-(4-Isonicotinoylpiperazin-1-yl)phenyl)-5,7-dimethoxyquinazolin-4(3H)-one] | Active |
| COc1cc(OC)c2c(=O)[nH]c(-c3ccc(N4CCN(C(=O)c5cccs5)CC4)cc3)nc2c1 [5,7-Dimethoxy-2-(4-(4-(thiophene-2-carbonyl)piperazin-1-yl)phenyl)quinazolin-4(3H)-one] | Active |
| COc1cc(OC)c2c(=O)[nH]c(-c3ccc(C4CCN(C(=O)OC(C)(C)C)CC4)cc3)nc2c1 [Tert-butyl 4-(4-(5,7-dimethoxy-4-oxo-3,4-dihydroquinazolin-2-yl)phenyl)piperidine-1-carboxylate] | Active |
| COc1cc(OC)c2c(=O)[nH]c(-c3ccc(N4CCOCC4)cc3)nc2c1 [5,7-dimethoxy-2-(4-morpholinophenyl)quinazolin-4(3H)-one] | Active |
| COc1cc(OC)c2c(=O)[nH]c(-c3ccc(N4CCC(NCc5ccccc5)CC4)nc3)nc2c1 [2-(6-(4-(Benzylamino)piperidin-1-yl)pyridin-3-yl)-5,7-dimethoxyquinazolin-4(3H)-one] | Active |
| COc1cc(OC)c2c(=O)[nH]c(-c3ccc(CN4CCC(NC(C)C)CC4)cc3)nc2c1 [2-(4-((4-(Isopropylamino)piperidin-1-yl)methyl)phenyl)-5,7-dimethoxyquinazolin-4(3H)-one] | Active |
| COc1cc(OC)c2c(=O)[nH]c(-c3ccc(N4CCC(N(C(C)=O)C(C)C)CC4)cc3)nc2c1 [N-(1-(4-(5,7-dimethoxy-4-oxo-3,4-dihydroquinazolin-2-yl)phenyl)piperidin-4-yl)-N-isopropylacetamide] | Active |
| COc1cc(OC)c2c(=O)[nH]c(-c3cc(C)c(OCCN4C(=O)c5ccccc5C4=O)c(C)c3)cc2c1 [2-(2-(4-(6,8-Dimethoxy-1-oxo-1,2-dihydroisoquinolin-3-yl)-2,6-dimethylphenoxy)ethyl)isoindoline-1,3-dione] | Active |
| COc1cc(OC)c2c(=O)[nH]c(-c3ccc(NS(C)(=O)=O)cc3)nc2c1 [N-(4-(5,7-Dimethoxy-4-oxo-3,4-dihydroquinazolin-2-yl)phenyl)methanesulfonamide] | Active |
| COc1cc(OC)c2c(=O)[nH]c(-c3ccc(OC4CCN(C(=O)N(C)C)CC4)cc3)nc2c1 [4-(4-(5,7-Dimethoxy-4-oxo-3,4-dihydroquinazolin-2-yl)phenoxy)-N,N-dimethylpiperidine-1-carboxamide] | Active |
| COc1cc(OC)c2c(=O)[nH]c(-c3ccc(C4CCN(C(C)=O)CC4)cc3)nc2c1 [2-(4-(1-acetylpiperidin-4-yl)phenyl)-5,7-dimethoxyquinazolin-4(3H)-one] | Active |
| COc1cc(OC)c2c(=O)[nH]c(-c3ccc(CN4CCC(N(C(C)=O)C(C)C)CC4)cc3)nc2c1 [N-(1-(4-(5,7-Dimethoxy-4-oxo-3,4-dihydroquinazolin-2-yl)benzyl)piperidin-4-yl)-N-isopropylacetamide] | Active |
| COc1cc(OC)c2c(=O)[nH]c(-c3ccc(N4CCC(NC(C)C)CC4)cc3)nc2c1 [2-(4-(4-(Isopropylamino)piperidin-1-yl)phenyl)-5,7-dimethoxyquinazolin-4(3H)-one] | Active |
| COc1cc(OC)c2c(=O)[nH]c(-c3ccc(N4CCN(Cc5ccccc5)CC4)cc3)nc2c1 [2-(4-(4-Benzylpiperazin-1-yl)phenyl)-5,7-dimethoxyquinazolin-4(3H)-one] | Active |
| COc1cc(OC)c2c(=O)[nH]c(-c3ccc(N4CCN(C(=O)c5cccnc5)CC4)cc3)nc2c1 [5,7-Dimethoxy-2-(4-(4-nicotinoylpiperazin-1-yl)phenyl)quinazolin-4(3H)-one] | Active |
| CNC1CCN(c2ccc(-c3nc4cc(OC)cc(OC)c4c(=O)[nH]3)cc2)C1 (stereo not drawn) [5,7-Dimethoxy-2-(4-(3-(methylamino)pyrrolidin-1-yl)phenyl)quinazolin-4(3H)-one] | Active |
| COc1cc(OC)c2c(=O)[nH]c(-c3ccc(N4C[C@@H](C)N(C(C)=O)[C@@H](C)C4)cc3)nc2n1 [2-(4-((3R,5S)-4-Acetyl-3,5-dimethylpiperazin-1-yl)phenyl)-5,7-dimethoxypyrido[2,3-d]pyrimidin-4(3H)-one] | Active |
| CC(C)N1CCN(c2ccc(-c3nc4cccc(Cl)c4c(=O)[nH]3)cc2)CC1 [5-Chloro-2-(4-(4-isopropylpiperazin-1-yl)phenyl)quinazolin-4(3H)-one] | Active |
